Assay results reported in patent publication US4673436A, “N, S containing corrosion inhibitors” (Exxon Chemical Patents Inc., priority 1986, dated 1987).

How the values were obtained:
[1] = Corrosion wheel test, sweet (50-50 3% NaCl brine - Mentor, saturated CO2 only), Tables III, VI, VII; settings: for corrosion protection / performance (in words): CO2 only corrosive environment; for % Protection @ 2 ppm / % Protection @ 8 ppm / % Protection @ 128 ppm / % Protection @ 4 ppm / % Protection @ 32 ppm: 160° F., 24 hours, saturated CO2 only
[2] = Corrosion wheel test, sweet-sour, all water system (3% NaCl brine, saturated CO2 + 100 ppm H2S), Table I; settings: 160° F., 24 hours, 3% NaCl brine only
Procedure: (§1) Twelve quaternary ammonium salts according to the present invention, were tested under four standard sets of corrosion wheel test conditions. These include a sweet-sour test in an all water system under a range of concentrations from 4-256 ppm (TABLE I). Tests 2 and 3 were run under sweet (TABLE III), and sour conditions (TABLE II) at low (4 ppm) and high (256 ppm) concentrations only. A film persistency test (TABLE IV) was also run for completeness of the screening sequence; however, it was not expected that these water soluble compounds would perform well under these test conditions. Due to the low solubility of some C18 derivatives, 20% activity was adopted as a standard, with the C18 compounds being submitted at 10% activity and added at double concentration to the test fluids. […] Compounds are generally water and low brine soluble, hydrocarbon dispersible with some C18 derivatives being soluble in both fresh water and hydrocarbon.
Blank weight loss: 40 ± 0.9 mg
(§2) Fluids: 3% NaCl brine only
(§3) Saturated CO2 + 100 ppm H2 S
(§4) Duplicates w/ triplicate blanks

[3] = Corrosion wheel test, sour (3% NaCl brine, saturated N2 + 500 ppm H2S), Table II; settings: 160° F., 24 hours, 3% NaCl brine only
Procedure: as §1
Blank weight loss: 55.8 ± 1.0 mg
as §2
Saturated N2 + 500 ppm H2 S
Duplicates and triplicate blanks

[4] = Corrosion wheel test, sweet (50-50 3% NaCl brine - Mentor, saturated CO2 only), Tables III, VI, VII; settings: Table III, 160° F., 24 hours
Procedure: Twelve quaternary ammonium salts according to the present invention, were tested under four standard sets of corrosion wheel test conditions. These include a sweet-sour test in an all water system under a range of concentrations from 4-256 ppm (TABLE I). Tests 2 and 3 were run under sweet (TABLE III), and sour conditions (TABLE II) at low (4 ppm) and high (256 ppm) concentrations only.
(§5) Fluids: 50-50 3% NaCl brine - Mentor
as §4
Fluids: 50-50 - 3% NaCl brine - Mentor

[5] = Film persistent corrosion wheel test (50-50 3% NaCl brine - Mentor, saturated CO2 + 100 ppm H2S), Table IV; settings: 160° F., film 1 hr, rinse 1 hr, run 24 hrs, single data points
Procedure: as §1
Blank weight loss: 58.3 ± 3.3 mg
Film 1 hr, Rinse 1 hr, Run 24 hrs.
as §5, §3
Single data points with triplicate blanks

[6] = Inhibitor solubility test, Table V; type: physicochemical; settings: 20% active inhibitor added at 0.5% by volume; observed initially and after 24 hours
[7] = Table VII, thiol addition comparison

SMILES: CCCCCCCCCC[N+](C)(C)C [C10 H21 NMe3 I, reference compound]
- corrosion protection / performance (in words) ([1]; Table VII): too short an alkyl chain length to function effectively as a corrosion inhibitor
- % Protection @ 2 ppm [1, 7]: 0%
- % Protection @ 8 ppm [1, 7]: 4%
- % Protection @ 128 ppm [1, 7]: 3%

SMILES: CCCCCCCCCCCCS [C12 H25 SH, dodecane thiol, reference compound]
- corrosion protection / performance (in words) ([1]; Table VII): neither did dodecene thiol alone give any corrosion protection
- % Protection @ 2 ppm [1, 7]: 4%
- % Protection @ 8 ppm [1, 7]: 7%
- % Protection @ 128 ppm [1, 7]: 0%

SMILES: CCCCCCCCCCCC[N+](C)(C)CCS [Compound 2]
- % Protection @ 4 ppm [2]: 35%
- % Protection @ 8 ppm [2]: 44%
- % Protection @ 16 ppm [2]: 67%
- % Protection @ 256 ppm [2]: 77%
- % Protection @ 4 ppm [3]: 23%
- % Protection @ 256 ppm [3]: 79%
- % Protection @ 4 ppm [4]: 56%
- % Protection @ 256 ppm [4]: 81%
- % Protection @ 10,000 ppm [5]: 64%
- Solubility in 5% NaCl brine [6]: disp
- Solubility in aromatic naphtha [6]: disp
- Solubility in distilled water [6]: sol
- Solubility in kerosene [6]: disp
- % Protection @ 2 ppm ([1]; Table VI confirmatory test): 13%
- % Protection @ 4 ppm ([1]; Table VI confirmatory test): 42%
- % Protection @ 8 ppm ([1]; Table VI confirmatory test): 69%
- % Protection @ 32 ppm ([1]; Table VI confirmatory test): 82%
- % Protection @ 128 ppm ([1]; Table VI confirmatory test): 80%
- % Protection @ 2 ppm [1, 7]: 23%
- % Protection @ 8 ppm [1, 7]: 72%
- % Protection @ 128 ppm [1, 7]: 84%

SMILES: CCCCCCCCCCCCCCCCCC[N+](C)(C)CCS [Compound 3]
- % Protection @ 4 ppm [2]: 31%
- % Protection @ 8 ppm [2]: 41%
- % Protection @ 16 ppm [2]: 58%
- % Protection @ 256 ppm [2]: 60%
- % Protection @ 4 ppm [3]: 11%
- % Protection @ 256 ppm [3]: 83%
- % Protection @ 4 ppm [4]: 62%
- % Protection @ 256 ppm [4]: 92%
- % Protection @ 10,000 ppm [5]: 53%
- Solubility in 5% NaCl brine [6]: disp
- Solubility in aromatic naphtha [6]: sol
- Solubility in distilled water [6]: sol
- Solubility in kerosene [6]: sol
- % Protection @ 2 ppm ([1]; Table VI confirmatory test): 18%
- % Protection @ 4 ppm ([1]; Table VI confirmatory test): 18%
- % Protection @ 8 ppm ([1]; Table VI confirmatory test): 76%
- % Protection @ 32 ppm ([1]; Table VI confirmatory test): 79%
- % Protection @ 128 ppm ([1]; Table VI confirmatory test): 81%

SMILES: CCCCCCCC[N+](C)(C)CCCS [Compound 4]
- % Protection @ 4 ppm [2]: 32%
- % Protection @ 8 ppm [2]: 55%
- % Protection @ 16 ppm [2]: 66%
- % Protection @ 256 ppm [2]: 76%
- % Protection @ 4 ppm [3]: 3%
- % Protection @ 256 ppm [3]: 81%
- % Protection @ 4 ppm [4]: 83%
- % Protection @ 256 ppm [4]: 86%
- % Protection @ 10,000 ppm [5]: 14%
- Solubility in 5% NaCl brine [6]: disp
- Solubility in aromatic naphtha [6]: disp
- Solubility in distilled water [6]: sol
- Solubility in kerosene [6]: disp
- % Protection @ 2 ppm ([1]; Table VI confirmatory test): 41%
- % Protection @ 4 ppm ([1]; Table VI confirmatory test): 63%
- % Protection @ 8 ppm ([1]; Table VI confirmatory test): 82%
- % Protection @ 32 ppm ([1]; Table VI confirmatory test): 80%
- % Protection @ 128 ppm ([1]; Table VI confirmatory test): 78%
- % Protection @ 2 ppm [1, 7]: 62%
- % Protection @ 8 ppm [1, 7]: 86%
- % Protection @ 128 ppm [1, 7]: 85%

SMILES: CCCCCCCCCCCC[N+](C)(C)CCCS [Compound 5]
- % Protection @ 4 ppm [2]: 30%
- % Protection @ 8 ppm [2]: 59%
- % Protection @ 16 ppm [2]: 67%
- % Protection @ 256 ppm [2]: 76%
- % Protection @ 4 ppm [3]: 17%
- % Protection @ 256 ppm [3]: 77%
- % Protection @ 4 ppm [4]: 82%
- % Protection @ 256 ppm [4]: 85%
- % Protection @ 10,000 ppm [5]: 25%
- Solubility in 5% NaCl brine [6]: sol
- Solubility in aromatic naphtha [6]: disp
- Solubility in distilled water [6]: sol
- Solubility in kerosene [6]: disp
- % Protection @ 2 ppm ([1]; Table VI confirmatory test): 45%
- % Protection @ 4 ppm ([1]; Table VI confirmatory test): 63%
- % Protection @ 8 ppm ([1]; Table VI confirmatory test): 79%
- % Protection @ 32 ppm ([1]; Table VI confirmatory test): 80%
- % Protection @ 128 ppm ([1]; Table VI confirmatory test): 78%

SMILES: CCCCCCCCCCCCCCCCCC[N+](C)(C)CCCS [Compound 6]
- % Protection @ 4 ppm [2]: 11%
- % Protection @ 8 ppm [2]: 26%
- % Protection @ 16 ppm [2]: 59%
- % Protection @ 256 ppm [2]: 75%
- % Protection @ 4 ppm [3]: 14%
- % Protection @ 256 ppm [3]: 71%
- % Protection @ 4 ppm [4]: 83%
- % Protection @ 10,000 ppm [5]: 71%
- Solubility in 5% NaCl brine [6]: insol
- Solubility in aromatic naphtha [6]: disp
- Solubility in distilled water [6]: sol
- Solubility in kerosene [6]: disp
- % Protection @ 2 ppm ([1]; Table VI confirmatory test): 30%
- % Protection @ 4 ppm ([1]; Table VI confirmatory test): 74%
- % Protection @ 8 ppm ([1]; Table VI confirmatory test): 75%
- % Protection @ 32 ppm ([1]; Table VI confirmatory test): 80%
- % Protection @ 128 ppm ([1]; Table VI confirmatory test): 85%

SMILES: CCCCCCCCSCC[N+](C)(C)C [Compound 7]
- % Protection @ 4 ppm [2]: 15%
- % Protection @ 8 ppm [2]: 17%
- % Protection @ 16 ppm [2]: 11%
- % Protection @ 256 ppm [2]: 31%
- % Protection @ 4 ppm [3]: 7%
- % Protection @ 256 ppm [3]: 72%
- % Protection @ 4 ppm [4]: 29%
- % Protection @ 256 ppm [4]: 65%
- % Protection @ 10,000 ppm [5]: 11%
- Solubility in 5% NaCl brine [6]: sol
- Solubility in aromatic naphtha [6]: disp
- Solubility in distilled water [6]: sol
- Solubility in kerosene [6]: disp

SMILES: CCCCCCCCCCCCSCC[N+](C)(C)C [Compound 8]
- % Protection @ 4 ppm [2]: 7%
- % Protection @ 8 ppm [2]: 13%
- % Protection @ 16 ppm [2]: 23%
- % Protection @ 256 ppm [2]: 81%
- % Protection @ 4 ppm [3]: 3%
- % Protection @ 256 ppm [3]: 78%
- % Protection @ 4 ppm [4]: 14%
- % Protection @ 256 ppm [4]: 76%
- % Protection @ 10,000 ppm [5]: 19%
- Solubility in 5% NaCl brine [6]: sol
- Solubility in aromatic naphtha [6]: disp
- Solubility in distilled water [6]: sol
- Solubility in kerosene [6]: disp
- % Protection @ 2 ppm ([1]; Table VI confirmatory test): 9%
- % Protection @ 4 ppm ([1]; Table VI confirmatory test): 19%
- % Protection @ 8 ppm ([1]; Table VI confirmatory test): 18%
- % Protection @ 32 ppm ([1]; Table VI confirmatory test): 62%
- % Protection @ 128 ppm ([1]; Table VI confirmatory test): 82%

SMILES: CCCCCCCCCCCCCCCCCCSCC[N+](C)(C)C [Compound 9]
- % Protection @ 4 ppm [2]: 26%
- % Protection @ 8 ppm [2]: 33%
- % Protection @ 16 ppm [2]: 52%
- % Protection @ 256 ppm [2]: 66%
- % Protection @ 4 ppm [3]: 6%
- % Protection @ 256 ppm [3]: 75%
- % Protection @ 4 ppm [4]: 38%
- % Protection @ 256 ppm [4]: 84%
- % Protection @ 10,000 ppm [5]: 17%
- Solubility in 5% NaCl brine [6]: insol
- Solubility in aromatic naphtha [6]: disp
- Solubility in distilled water [6]: disp
- Solubility in kerosene [6]: disp

SMILES: CCCCCCCCSCCC[N+](C)(C)C [Compound 10]
- % Protection @ 4 ppm [2]: 18%
- % Protection @ 8 ppm [2]: 23%
- % Protection @ 16 ppm [2]: 24%
- % Protection @ 256 ppm [2]: 50%
- % Protection @ 4 ppm [3]: 12%
- % Protection @ 256 ppm [3]: 75%
- % Protection @ 4 ppm [4]: 81%
- % Protection @ 10,000 ppm [5]: 8%
- Solubility in 5% NaCl brine [6]: sol
- Solubility in aromatic naphtha [6]: disp
- Solubility in distilled water [6]: sol
- Solubility in kerosene [6]: disp
- % Protection @ 2 ppm ([1]; Table VI confirmatory test): 10%
- % Protection @ 4 ppm ([1]; Table VI confirmatory test): 12%
- % Protection @ 8 ppm ([1]; Table VI confirmatory test): 20%
- % Protection @ 32 ppm ([1]; Table VI confirmatory test): 25%
- % Protection @ 128 ppm ([1]; Table VI confirmatory test): 51%

SMILES: CCCCCCCCCCCCSCCC[N+](C)(C)C [Compound 11]
- % Protection @ 4 ppm [2]: 21%
- % Protection @ 8 ppm [2]: 27%
- % Protection @ 16 ppm [2]: 35%
- % Protection @ 256 ppm [2]: 79%
- % Protection @ 4 ppm [3]: 15%
- % Protection @ 256 ppm [3]: 80%
- % Protection @ 4 ppm [4]: 60%
- % Protection @ 256 ppm [4]: 84%
- % Protection @ 10,000 ppm [5]: 20%
- Solubility in 5% NaCl brine [6]: sol
- Solubility in aromatic naphtha [6]: disp
- Solubility in distilled water [6]: sol
- Solubility in kerosene [6]: disp

SMILES: CCCCCCCCCCCCCCCCCCSCCC[N+](C)(C)C [Compound 12]
- % Protection @ 4 ppm [2]: 49%
- % Protection @ 8 ppm [2]: 56%
- % Protection @ 16 ppm [2]: 57%
- % Protection @ 256 ppm [2]: 69%
- % Protection @ 4 ppm [3]: 14%
- % Protection @ 256 ppm [3]: 81%
- % Protection @ 4 ppm [4]: 50%
- % Protection @ 256 ppm [4]: 83%
- % Protection @ 10,000 ppm [5]: 14%
- Solubility in 5% NaCl brine [6]: insol
- Solubility in aromatic naphtha [6]: sol
- Solubility in distilled water [6]: sol
- Solubility in kerosene [6]: disp
